In publication PMC9516332 (Frontiers in Oncology, 2022):
Like-named read-outs stand apart in the source and are kept apart here.

Tests used:
134 cancer cell lines [1] = tested on: 134 cancer cell lines
AP-1060 (ETV6-NTRK3) = assay: Cell viability assay
134 cancer cell lines [2] = assay: Cell viability assay (ATPlite, 72 hours), IC50 on cancer cell line panel

In the case of CO[C@]1(C(=O)N[C@@H](C)c2ccc(-n3cc(F)cn3)nc2)CC[C@H](c2nc(C)cc(Nc3cc(C)[nH]n3)n2)CC1 [pralsetinib], the IC50 (134 cancer cell lines [1]) is reported as 2.64 µM, the “higher sensitivity of AP-1060 to pralsetinib compared to selpercatinib” value (AP-1060 (ETV6-NTRK3); cell viability) is reported as about 20 fold and the IC50 (AP-1060 (ETV6-NTRK3); read-out: IC50 in cell proliferation assay) is reported as 0.206 µM. It also gave an IC50 (134 cancer cell lines [2]; HEC-6, read-out: IC50 in cell proliferation assay, HEC-6 cell line (EGFR p.A289V)) of 16.9 µM, an IC50 (134 cancer cell lines [2]; Homo sapiens, 769-P, read-out: IC50 in cell proliferation assay, cell line 769-P) of 3.15 µM and an IC50 (134 cancer cell lines [2]; Homo sapiens, 786-0, read-out: IC50 in cell proliferation assay, cell line 786-O) of 3.96 µM. It also gave an IC50 (134 cancer cell lines [2]; Homo sapiens, A 172, read-out: IC50 in cell proliferation assay, cell line A-172) of 0.758 µM, an IC50 (134 cancer cell lines [2]; Homo sapiens, A204, read-out: IC50 in cell proliferation assay, cell line A-204) of 0.679 µM and an IC50 (134 cancer cell lines [2]; Homo sapiens, A498, read-out: IC50 in cell proliferation assay, cell line A-498) of 8.94 µM. The IC50 (134 cancer cell lines [2]; Homo sapiens, A549, read-out: IC50 in cell proliferation assay, cell line A-549) was 8.17 µM, the IC50 (134 cancer cell lines [2]; Homo sapiens, A704, read-out: IC50 in cell proliferation assay, cell line A-704) was 2.49 µM and the IC50 (134 cancer cell lines [2]; Homo sapiens, A-375, read-out: IC50 in cell proliferation assay, cell line A-375 (BRAF p.V600E)) was 12.1 µM. The IC50 (134 cancer cell lines [2]; Homo sapiens, A-427, read-out: IC50 in cell proliferation assay, cell line A-427) was 1.1 µM, the IC50 (134 cancer cell lines [2]; Homo sapiens, ACHN, read-out: IC50 in cell proliferation assay, cell line ACHN) was 2.08 µM and the IC50 (134 cancer cell lines [2]; Homo sapiens, AN3-CA, read-out: IC50 in cell proliferation assay, cell line AN3-CA (FGFR2 p.N549K)) was 0.9 µM. For the same compound, the IC50 (134 cancer cell lines [2]; Homo sapiens, ASPC1, read-out: IC50 in cell proliferation assay, cell line AsPC-1) was 25.9 µM, the IC50 (134 cancer cell lines [2]; Homo sapiens, AU565, read-out: IC50 in cell proliferation assay, cell line AU565 (ERBB2 amplification)) was 8.92 µM and the IC50 (134 cancer cell lines [2]; Homo sapiens, BT-20, read-out: IC50 in cell proliferation assay, cell line BT-20) was 12.6 µM. It also gave an IC50 (134 cancer cell lines [2]; Homo sapiens, BT-474, read-out: IC50 in cell proliferation assay, cell line BT-474 (ERBB2 amplification)) of over 31.6 µM, an IC50 (134 cancer cell lines [2]; Homo sapiens, BT-549, read-out: IC50 in cell proliferation assay, cell line BT-549) of 1.93 µM and an IC50 (134 cancer cell lines [2]; Homo sapiens, BXPC-3, read-out: IC50 in cell proliferation assay, cell line BxPC-3) of 3.46 µM. It also gave an IC50 (134 cancer cell lines [2]; Homo sapiens, C-33-A, read-out: IC50 in cell proliferation assay, cell line C-33 A) of 0.981 µM, an IC50 (134 cancer cell lines [2]; Homo sapiens, CAL-27, read-out: IC50 in cell proliferation assay, cell line CAL-27) of 1.95 µM and an IC50 (134 cancer cell lines [2]; Homo sapiens, CCF-STTG1, read-out: IC50 in cell proliferation assay, cell line CCF-STTG1) of 5.77 µM. For the same compound, the IC50 (134 cancer cell lines [2]; Homo sapiens, CCRF-CEM, read-out: IC50 in cell proliferation assay, cell line CCRF-CEM) was 13.3 µM, the IC50 (134 cancer cell lines [2]; Homo sapiens, COLO 205, read-out: IC50 in cell proliferation assay, cell line COLO 205 (BRAF p.V600E)) was 12.9 µM and the IC50 (134 cancer cell lines [2]; Homo sapiens, COLO-829, read-out: IC50 in cell proliferation assay, cell line COLO 829 (BRAF p.V600E)) was 24.7 µM. For the same compound, the IC50 (134 cancer cell lines [2]; Homo sapiens, DLD-1, read-out: IC50 in cell proliferation assay, cell line DLD-1) was 9.98 µM, the IC50 (134 cancer cell lines [2]; Homo sapiens, DU-4475, read-out: IC50 in cell proliferation assay, cell line DU4475 (BRAF p.V600E)) was 11.8 µM and the IC50 (134 cancer cell lines [2]; Homo sapiens, Daoy, read-out: IC50 in cell proliferation assay, cell line Daoy) was 10.1 µM. For the same compound, the IC50 (134 cancer cell lines [2]; Homo sapiens, DoTc2-4510, read-out: IC50 in cell proliferation assay, cell line DoTc2 4510) was 3.5 µM, the IC50 (134 cancer cell lines [2]; Homo sapiens, EOL1, read-out: IC50 in cell proliferation assay, cell line EoL-1 (FIP1L1-PDGFRA)) was 0.016 µM and the IC50 (134 cancer cell lines [2]; Homo sapiens, FaDu, read-out: IC50 in cell proliferation assay, cell line FaDu) was 3.65 µM. For the same compound, the IC50 (134 cancer cell lines [2]; Homo sapiens, G-361, read-out: IC50 in cell proliferation assay, cell line G-361 (BRAF p.V600E)) was 17.6 µM, the IC50 (134 cancer cell lines [2]; Homo sapiens, HCC827, read-out: IC50 in cell proliferation assay, cell line HCC827 (EGFR exon19del)) was 3.01 µM and the IC50 (134 cancer cell lines [2]; Homo sapiens, HCC4006, read-out: IC50 in cell proliferation assay, cell line HCC4006 (EGFR exon19del)) was 5.93 µM. The IC50 (134 cancer cell lines [2]; Homo sapiens, HCT-15, read-out: IC50 in cell proliferation assay, cell line HCT 15) was 5.73 µM, the IC50 (134 cancer cell lines [2]; Homo sapiens, HCT-116, read-out: IC50 in cell proliferation assay, cell line HCT 116) was 10.3 µM and the IC50 (134 cancer cell lines [2]; Homo sapiens, HEC-1, read-out: IC50 in cell proliferation assay, HEC-1 cell line) was 2.32 µM. It also gave an IC50 (134 cancer cell lines [2]; Homo sapiens, HEC-1B, read-out: IC50 in cell proliferation assay, HEC-1-B cell line (EGFR p.A864V)) of 0.608 µM, an IC50 (134 cancer cell lines [2]; Homo sapiens, HL-60, read-out: IC50 in cell proliferation assay, HL-60 cell line) of 25.2 µM and an IC50 (134 cancer cell lines [2]; Homo sapiens, HT, read-out: IC50 in cell proliferation assay, HT cell line) of over 31.6 µM. The IC50 (134 cancer cell lines [2]; Homo sapiens, HT-1080, read-out: IC50 in cell proliferation assay, HT-1080 cell line) was 8.1 µM, the IC50 (134 cancer cell lines [2]; Homo sapiens, Hs746T, read-out: IC50 in cell proliferation assay, Hs 746.T cell line (MET exon14skip + amplification)) was 9.64 µM and the IC50 (134 cancer cell lines [2]; Homo sapiens, Hs-578T, read-out: IC50 in cell proliferation assay, Hs 578T cell line) was 1.15 µM. It also gave an IC50 (134 cancer cell lines [2]; Homo sapiens, HuTu80, read-out: IC50 in cell proliferation assay, HuTu 80 cell line) of 0.864 µM, an IC50 (134 cancer cell lines [2]; Homo sapiens, J82, read-out: IC50 in cell proliferation assay, J82 cell line) of 1.74 µM and an IC50 (134 cancer cell lines [2]; Homo sapiens, Jurkat E6.1, read-out: IC50 in cell proliferation assay, Jurkat E6.1 cell line) of 11.4 µM. The IC50 (134 cancer cell lines [2]; Homo sapiens, K562, read-out: IC50 in cell proliferation assay, K-562 cell line) was 5.58 µM, the IC50 (134 cancer cell lines [2]; Homo sapiens, KATO III, read-out: IC50 in cell proliferation assay, KATO III cell line (FGFR2 amplification)) was 0.273 µM and the IC50 (134 cancer cell lines [2]; Homo sapiens, KG-1, read-out: IC50 in cell proliferation assay, KG-1 cell line (FGFR1OP2-FGFR1)) was 0.131 µM. For the same compound, the IC50 (134 cancer cell lines [2]; Homo sapiens, KLE, read-out: IC50 in cell proliferation assay, KLE cell line) was 1.82 µM, the IC50 (134 cancer cell lines [2]; Homo sapiens, KMS-11, read-out: IC50 in cell proliferation assay, KMS-11 cell line (FGFR3 p.Y373C)) was 0.394 µM and the IC50 (134 cancer cell lines [2]; Homo sapiens, KU812, read-out: IC50 in cell proliferation assay, Ku812 cell line) was 3.74 µM. For the same compound, the IC50 (134 cancer cell lines [2]; Homo sapiens, Kasumi 1, read-out: IC50 in cell proliferation assay, Kasumi-1 cell line (KIT p.N822K)) was 0.184 µM, the IC50 (134 cancer cell lines [2]; Homo sapiens, LC-2-ad, read-out: IC50 in cell proliferation assay, LC-2/ad cell line (CCDC6-RET)) was 0.054 µM and the IC50 (134 cancer cell lines [2]; Homo sapiens, LNCaP-Clone-FGC, read-out: IC50 in cell proliferation assay, LNCaP clone FGC cell line) was over 31.6 µM. For the same compound, the IC50 (134 cancer cell lines [2]; Homo sapiens, LS174T, read-out: IC50 in cell proliferation assay, LS174T cell line) was 2.29 µM, the IC50 (134 cancer cell lines [2]; Homo sapiens, LS-411N, read-out: IC50 in cell proliferation assay, LS411N cell line (BRAF p.V600E)) was 25.6 µM and the IC50 (134 cancer cell lines [2]; Homo sapiens, LoVo, read-out: IC50 in cell proliferation assay, LoVo cell line) was 1.52 µM. For the same compound, the IC50 (134 cancer cell lines [2]; Homo sapiens, MCF7, read-out: IC50 in cell proliferation assay, MCF-7 cell line) was over 31.6 µM, the IC50 (134 cancer cell lines [2]; Homo sapiens, MDA-MB-231, read-out: IC50 in cell proliferation assay, MDA-MB-231 cell line) was 0.555 µM and the IC50 (134 cancer cell lines [2]; Homo sapiens, MDA-MB-453, read-out: IC50 in cell proliferation assay, MDA-MB-453 cell line) was over 31.6 µM. It also gave an IC50 (134 cancer cell lines [2]; Homo sapiens, MDA-MB-468, read-out: IC50 in cell proliferation assay, MDA-MB-468 cell line) of 8.52 µM, an IC50 (134 cancer cell lines [2]; Homo sapiens, MG-63, read-out: IC50 in cell proliferation assay, MG-63 cell line) of 1.88 µM and an IC50 (134 cancer cell lines [2]; Homo sapiens, MIA PaCa-2, read-out: IC50 in cell proliferation assay, MIA PaCa-2 cell line) of 1.56 µM. The IC50 (134 cancer cell lines [2]; Homo sapiens, MKN-45, read-out: IC50 in cell proliferation assay, MKN45 cell line (MET amplification)) was over 31.6 µM.
